This note sets out measurements from BindingDB's records for doi:10.1016/j.bmc.2013.11.045 (Northern Kentucky University, 2013).

SMILES strings stand for the structures.

The assay can be described thus: Inhibition of aromatase in human MCF7 cells.

Turning to `O=C1c2ccccc2OCC1c1ccc(Oc2ccccc2)cc1` (configuration not stated), the IC50 – broadly, the concentration needed to halve the response being measured – worked out at 17 µM. Under `O=C1c2ccccc2OCC1c1cccnc1` (configuration not stated) stands 44 µM.
